These results are taken from patent US8101732B2, “Methods of producing validamycin A analogs and uses thereof” (State of Oregon acting by and through the State Board of …, priority 2008, dated 2012).

In the experiment the test system is Pellicularia sasakii (=R. solani). Briefly: Fungal growth inhibitory assay (agar plug assay). It counts as cell-based. Particulars: growth monitored after two days, FIG. 4. As for the experimental part:
Fungal growth inhibitory assay of 1,1′-bis-valienamine (3) and validienamycin (4): 1% agar (14 mL) was mixed with the compounds (dissolved in 1 mL H2O) and then plated into Petri dishes. Discs of PDA agar with mycelia of Pellicularia sasakii were placed in the center of the above plates as the indicator strain for bioassay of the compounds. The plates were incubated at 30° C. for 2 days.
Antifungal activity assays of compounds 3 and 4 were tested against Pellicularia sasakii (=R. solani) using an agar plug assay (Minagawa et al., Chembiochem 8: 632-641, 2007). Agar plugs with diameter of 5 mm and containing P. sasakii mycelia were placed in the center of agar plates that contain each compound and the growth of the pathogen was monitored after two days. Active compounds were determined based on their ability to inhibit the expansion of the fungal mycelia on the Petri dishes.

With `OCC1=C[C@H](N[C@H]2C=C(CO)[C@@H](O)[C@H](O)[C@H]2O)[C@H](O)[C@@H](O)[C@@H]1O` [Compound 4, validienamycin], the “fungistatic activity (inhibition of expansion of the fungal mycelia)” value (0.2 mM concentration in agar plate) is “comparable fungistatic activity with 1 and 2”.
With `OCC1=C[C@H](N[C@H]2C[C@H](CO)[C@@H](O[C@@H]3OC(CO)[C@@H](O)C(O)[C@H]3O)[C@H](O)[C@H]2O)[C@H](O)[C@@H](O)[C@@H]1O` (some centres unmarked) [Compound 1, validamycin A], the “fungistatic activity (inhibition of expansion of the fungal mycelia)” value (lower concentration (0.02 mM) in agar plate) is on record as “the most active compound among those evaluated”.
